Reference: patent US20220105150A1, “AMPHIPATHIC ALPHA-HELICAL ANTIMICROBIAL PEPTIDES TREAT INFECTIONS BY GRAM-NEGATIVE PATHOGENS” (priority 2019, published 2022)
Values joined by “and” are separate entries in the source; they are usually repeats but may differ in a detail not shown here. Equal values may be shown once.

Assays:
[1] = Helical structure by circular dichroism spectroscopy; format: physicochemical; conditions: for Aqueous pH 7 [θ]222: 100 mM KCl, 50 mM Na2HPO4/NaH2PO4, pH 7.0; for Aqueous pH 7 [θ]222 / 50% TFE [θ]222: 222 nm; for 50% TFE [θ]222: aqueous buffer containing 50% trifluoroethanol; for Δ[Θ]222 TFE-aqueous: difference 50% TFE minus aqueous; for % Helix Induced: increase in molar ellipticity in the presence of 50% TFE; for Aqueous pH 7 % Helix: relative to molar ellipticity of the peptide in 50% TFE
human red blood cells = assay: Hemolytic activity on human red blood cells; conditions: for HC50: 50% hemolysis of human red blood cells after 18 h at 37° C.; for HC50 Fold Decrease: same peptide with and without specificity determinants
Experimental: For comparison, the inventors also determined the hemolytic activity after 18 hours at 37° C. Hemolysis can be determined with red blood cells (RBC) from various species including human red blood cells (hRBC).
The coupling procedure used 5 equivalents of Fmoc-D-amino acid or Fmoc-L-amino acid and HCTU (O-(1H-6-chlorobenzotriazole-1-yl)-1,1,3,3-tetramethyluronium hexafluorophosphate) and 6-Cl-HOBt (1-hydroxy-6-chloro-benztriazole) at 4.5 equivalents in DMF (Fisher Scientific, Denver, Colo.) and N-diisopropylethylamine (DIPEA) 10 equivalents (Oakwood Products, Inc., Estill, S.C.) in N-methyl-2-pyrrolidinone (NMP) (Fisher Scientific, Denver, Colo.) with the first and second couplings at room temperature for 30 min each. The deprotection procedure (removal of Fmoc protecting group) was carried out by treatment of the resin with 0.1 M HOBt (1-hydroxybenzotriazole) in DMF with 20% piperidine for 30 min. […] The resin was removed by filtration and peptide was precipitated with ice-cooled ethyl ether on ice for 15 min. Ether was decanted, the peptide was washed twice with ether and redissolved in acetonitrile/water (1:1, with 0.2% TFA) and the solution lyophilized to obtain the crude peptide. • Analytical and Preparative Purification by Reversed-Phase Chromatography: Analytical RP-HPLC: Column, Luna C18 (2), 250×4.6 mm I.D., 5 μm particle size, 100 Å pore size from Phenomenex (Torrance, Calif.). Run conditions: linear AB gradient (1% acetonitrile/min, starting from 2% acetonitrile) at a flow-rate of 1 ml/min, where eluent A is 0.2% aq. TFA and eluent B is 0.18% TFA in acetonitrile; temperature, 30° C. Preparative RP-HPLC: Peptides were dissolved in 0.2% aq. TFA containing 2% acetonitrile to a final concentration of 10 mg/ml. Following filtration through a 0.45 μm Millipore filter and subsequently through a 0.22 μm filter, the peptide solutions were loaded onto the column via multiple 20-ml injections into a 20-ml injection loop at a flow-rate of 10 ml/min. Column, Luna C18 (2), 250×30 mm I.D., 5 um particle size, 100 Å pore size from Phenomenex. Run conditions: 2% acetonitrile/min gradient up to an acetonitrile concentration 10% below that required to elute the peptide during analytical RP-HPLC, then shallow gradient elution (0.05% or 0.1% acetonitrile/min depending on the complexity of impurities near the product of interest on the analytical run of the crude peptide) at a flow-rate of 10 ml/min (same eluents as shown above for analytical RP-HPLC); at room temperature. • Temperature Profiling of Peptides on Reversed-phase HPLC to Measure Dimerization and Oligomerization: Purified peptides were analyzed on an Agilent 1200 series liquid chromatograph for temperature profiling using a Zorbax 300 SB-C8 column (150 mm×2.1 mm I.D.; 5 μm particle size, 300 Å pore size) from Agilent Technologies. […] Temperature profiling was carried out on peptide mixtures run at each temperature in 2° C. increments from 5° C. to 41° C. and 10° C. increments from 5° C. to 75° C. Twenty minutes was allowed between runs for temperature equilibration. • Characterization of Helical Structure: The mean residue molar ellipticities of peptides were determined by circular dichroism (CD) spectroscopy, using a Jasco J-815 spectropolarimeter (Jasco Inc. Easton, Md., USA) at 5° C. under KP buffer (50 mM NaH2PO4/Na2HPO4/100 mM KCl, pH 7.0) as well as in the presence of an α-helix inducing solvent, 2,2,2-trifluoroethanol, TFE, (50 mM NaH2PO4/Na2HPO4/100 mM KCl, pH 7.0 buffer/50% TFE). A 10-fold dilution of an approximately 500 μM stock solution of the peptide analogs was loaded into a 0.1 cm quartz cell and its ellipticity scanned from 195 to 250 nm.

Compound	Aqueous pH 7 [θ]222 [1]	50% TFE [θ]222 [1]	Δ[Θ]222 TFE-aqueous [1]	% Helix Induced [1]	Aqueous pH 7 % Helix [1]	HC50 (human red blood cells)	HC50 Fold Decrease (human red blood cells)
CC(=O)N[C@H](CCCCN)C(=O)N[C@H](CC(C)C)C(=O)N[C@H](CCN)C(=O)N[C@H](CO)C(=O)N[C@H](CC(C)C)C(=O)N[C@H](CC(C)C)C(=O)N[C@H](CCN)C(=O)N[C@@H](C(=O)N[C@H](CC(C)C)C(=O)N[C@H](CO)C(=O)N[C@H](CCN)C(=O)N[C@H](C)C(=O)N[C@H](C)C(=O)N[C@H](C)C(=O)N[C@H](C)C(=O)N[C@H](C)C(=O)N[C@H](CC(C)C)C(=O)N[C@H](CCN)C(=O)N[C@@H](C(=O)N[C@H](CC(C)C)C(=O)N[C@H](CC(C)C)C(=O)N[C@H](CCN)C(=O)N[C@H](C)C(=O)N[C@H](CC(C)C)C(=O)N[C@H](CO)C(=O)N[C@H](CCN)C(N)=O)[C@H](C)O)[C@H](C)O [D86(K13A/K16A)-(Lys^1-6Dab-1), Ac-KL(Dab)SLL(Dab)TLS(Dab)AAAAAL(Dab)TLL(Dab)ALS(Dab)-amide]	2,308 mdeg cm^2/(dmol*res)	18,731 mdeg cm^2/(dmol*res)	16,423 mdeg cm^2/(dmol*res)	88%	12%	20.0 μg/mL and 7.7 μM	>−96.4
CC(=O)N[C@H](CCCCN)C(=O)N[C@H](CC(C)C)C(=O)N[C@H](CN)C(=O)N[C@H](CO)C(=O)N[C@H](CC(C)C)C(=O)N[C@H](CC(C)C)C(=O)N[C@H](CN)C(=O)N[C@@H](C(=O)N[C@H](CC(C)C)C(=O)N[C@H](CO)C(=O)N[C@H](CN)C(=O)N[C@H](C)C(=O)N[C@H](C)C(=O)N[C@H](C)C(=O)N[C@H](C)C(=O)N[C@H](C)C(=O)N[C@H](CC(C)C)C(=O)N[C@H](CN)C(=O)N[C@@H](C(=O)N[C@H](CC(C)C)C(=O)N[C@H](CC(C)C)C(=O)N[C@H](CN)C(=O)N[C@H](C)C(=O)N[C@H](CC(C)C)C(=O)N[C@H](CO)C(=O)N[C@H](CN)C(N)=O)[C@H](C)O)[C@H](C)O [D105(K13A/K16A)-(Lys^1-6Dap-1), Ac-KL(Dap)SLL(Dap)TLS(Dap)AAAAAL(Dap)TLL(Dap)ALS(Dap)-amide]	9,577 mdeg cm^2/(dmol*res)	18,038 mdeg cm^2/(dmol*res)	8,461 mdeg cm^2/(dmol*res)	47%	53%	7.2 μg/mL and 2.9 μM	>−395.9
